# Assay results reported in US20130331738A1, “COMPOSITIONS AND METHODS FOR POTENTIATING SONOTHROMBOLYSIS” (Board of Trustees University of Arkansas, priority 2012, published 2013).
# Tested on: rabbit blood clots
# Test: In vitro sonothrombolysis of rabbit blood clots in a Mylar flow chamber infused with serum
# Details: CPDL 0.001% w/V added to the MB suspension, complete absence of tPA
# Description: To assess the combined effect of ultrasound in combination with tPA, a tissue permeabilizer, and microbubbles (MBs) on the efficacy of sonothrombolysis, the following experiment was conducted. Sonothrombolysis was performed on rabbit blood clots situated in a Mylar flow chamber (37.0° C.) infused with serum. In addition, tPA was introduced into the flow chamber at several initial concentrations ranging from 0.0 mg/mL to 0.2 mg/mL. At each tPA concentration, the ultrasound delivery parameters were adjusted to maximize the efficacy of sonothrombolysis of the clots. The efficacy of sonothrombolysis was assessed by determining the % clot mass loss per minute within the flow chamber. The ultrasound delivery parameters that were adjusted in this experiment included pulsed ultrasound intensity (0.1-2.0 W/cm2), ultrasound frequency (0.7-4 MHz), and duty factor (0.05-100%).
# Once the ultrasound delivery parameters were established for each tPA concentration, uniformly-sized MBs having diameters ranging from about […] were then added to the flow chamber; the concentration and elasticity of the MBs were adjusted while reducing tPA in order to maintain the initial % clot mass loss per minute. […]
compound,measurement,value
"O=C1CCCCCCCCCCCCCCO1 [CPDL, cyclopentadecanolide]",increase of efficacy of sonothrombolysis (% clot mass loss per minute),six-fold
